Consider 4 compounds from publication PMC3789947, “Mechanism for Recognition of an Unusual Mycobacterial Glycolipid by the Macrophage Receptor Mincle” (The Journal of Biological Chemistry, 2013).

SMILES strings stand for the structures.

One may read the Ki as the equilibrium dissociation constant of an inhibitor or competing ligand from its target. A high value points to lower affinity.

Assay [1] addresses T1, bovine mincle CRD (Bos taurus, UniProt E1BHM0, I174T).
T1 construct: gene CLEC4E; C-type carbohydrate recognition domain, residues 78-211
T1 sequence (E1BHM0 78-211 I174T): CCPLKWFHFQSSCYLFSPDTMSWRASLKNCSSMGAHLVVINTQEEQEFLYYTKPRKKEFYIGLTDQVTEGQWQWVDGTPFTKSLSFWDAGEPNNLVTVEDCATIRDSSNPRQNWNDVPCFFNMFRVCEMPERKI
As to the kind of experiment: competition with […]-Man31-BSA on immobilized biotin-tagged CRD. It is filed as binding.

For assay [2], the target named is T1, bovine mincle CRD. The assay is described as above. The settings on record: pH 7.8, 1.5 M NaCl, 2.5 mM CaCl2, 4 °C. It is filed as binding.
Setting [3] is: reported as KI(trehalose)/KI(acyltrehalose) ratio.

With `CCCCCCCC(=O)OC[C@H]1O[C@H](O[C@H]2O[C@H](CO)[C@@H](O)[C@H](O)[C@H]2O)[C@H](O)[C@@H](O)[C@@H]1O` [mono-octanoyl trehalose], on bovine mincle CRD [1], the Ki was found to be 58 ± 8 µM. On to `CCCC(=O)OC[C@H]1O[C@H](O[C@H]2O[C@H](CO)[C@@H](O)[C@H](O)[C@H]2O)[C@H](O)[C@@H](O)[C@@H]1O` [mono-n-butanoyl derivative of trehalose], for which the KI entry at bovine mincle CRD [2] (setting [3]) is “the mono-n-butanoyl derivative showed enhanced affinity compared with trehalose”.

Take `CC(=O)OC[C@H]1O[C@H](O[C@H]2O[C@H](COC(C)=O)[C@@H](O)[C@H](O)[C@H]2O)[C@H](O)[C@@H](O)[C@@H]1O` [trehalose acetylated at the two 6-OH groups]: the KI result at bovine mincle CRD [2] (setting [3]) is on record as “acetylation at the two 6-OH groups is tolerated”. Turning to `CO[C@H]1O[C@H](CO)[C@@H](O)[C@H](O)[C@H]1O` [α-methyl glucoside], at bovine mincle CRD [2], the KI entry was “The mean ratio of KI values for α-methyl glucoside and trehalose”.
